Reference: publication PMC12426469, “A Covalent and Modulable Inhibitor of the Tubulin‐Microtubule System: Insights Into the Mechanism of Cacalol” (Chemical Biology & Drug Design, 2025)

Biological target: T1, α-tubulin (Sus scrofa, UniProt P02550)
T1 construct: gene TUBA1A; purified porcine brain α,β-tubulin; modified peptide 340SIQFVDWCPTGFK352 of α-tubulin; with β-tubulin
Assay: LC-MS of trypsin-digested tubulin showing covalent adduct; IC50 from in vitro tubulin polymerization assay
Assay type: biochemical

T1 sequence (P02550 whole entry): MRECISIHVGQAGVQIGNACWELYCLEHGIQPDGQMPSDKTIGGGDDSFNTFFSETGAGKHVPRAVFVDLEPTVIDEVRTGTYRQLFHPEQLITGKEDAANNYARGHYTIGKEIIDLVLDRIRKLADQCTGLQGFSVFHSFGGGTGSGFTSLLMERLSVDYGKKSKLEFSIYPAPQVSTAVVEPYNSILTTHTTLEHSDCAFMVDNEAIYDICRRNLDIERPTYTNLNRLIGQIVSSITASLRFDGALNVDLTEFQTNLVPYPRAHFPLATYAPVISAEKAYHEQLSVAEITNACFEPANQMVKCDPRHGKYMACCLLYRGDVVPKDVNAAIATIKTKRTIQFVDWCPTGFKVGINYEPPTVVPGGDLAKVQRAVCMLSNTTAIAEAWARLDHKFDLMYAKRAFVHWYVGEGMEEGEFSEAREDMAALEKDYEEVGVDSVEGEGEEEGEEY
T1 sequence (P02554 whole entry partner): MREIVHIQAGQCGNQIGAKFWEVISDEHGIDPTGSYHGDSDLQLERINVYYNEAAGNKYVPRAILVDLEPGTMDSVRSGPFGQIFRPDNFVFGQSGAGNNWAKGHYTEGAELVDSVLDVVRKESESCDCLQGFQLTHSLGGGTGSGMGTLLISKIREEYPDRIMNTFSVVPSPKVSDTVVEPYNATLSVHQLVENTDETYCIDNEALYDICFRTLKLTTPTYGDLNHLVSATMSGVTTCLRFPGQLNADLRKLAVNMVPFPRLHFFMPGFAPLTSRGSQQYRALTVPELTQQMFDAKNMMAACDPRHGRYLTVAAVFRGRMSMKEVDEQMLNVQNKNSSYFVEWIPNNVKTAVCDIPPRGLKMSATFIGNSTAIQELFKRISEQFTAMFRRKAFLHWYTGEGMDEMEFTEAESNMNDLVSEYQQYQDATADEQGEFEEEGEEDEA

IC50: 43 µM
Structure (SMILES): C=C1C2=C(CCC[C@@H]2C)C(=O)c2occ(C)c21 [compound 2, (S)‐3,5‐Dimethyl‐4‐Methylene‐5,6,7,8‐Tetrahydronaphtho[2,3‐b]Furan‐9(4H )‐One]
